In US20230048888A1, “USE OF TRIAZOLOTRIAZINE DERIVATIVE IN TREATMENT OF DISEASES” (ZHEJIANG VIMGREEN PHARMACEUTICALS, LTD., priority 2019, published 2023):
Where two headings read alike, the source gives them in different places.

Assay: Pharmacokinetics of acetate of Compound 22 in SD rats with single and repeated administration
Format: in vivo
Conditions: for clearance / Vd / AUC(0-t) / half-life / bioavailability / Cmax / C0 / Tmax: rat, plasma; for Tmax: read-out: Tmax (median)
Experimental: The formulation for Group 5 was prepared before administration on Day 1, and then, divided into daily doses and stored at 5±3° C. After taking out the formulations on the day of administration, the formulations should be let stand at room temperature for at least 30 minutes before administration.
After blood collection, the blood collection tube containing the anticoagulant was turned upside down several times to mix well, and placed on wet ice before centrifugation. Within 60 minutes after blood collection, the samples were centrifuged at 2000 g for 10 minutes at 2-8° C. to separate red blood cells, thereby obtaining plasma samples. The plasma samples were transferred to cryovials and stored at −75±15° C. until analysis.
Blood samples were collected from SD rats at room temperature before administration and within 24 hours after administration. All collected samples were placed on wet ice before centrifugation and stored at −75±15° C. until analysis.
The mass spectrometer was Applied Biosystems/AB Sciex Triple Quad 4500.
Pharmacokinetic data was calculated using the linear logarithmic trapezoidal method, with a weight of 1/(Y*Y). Samples with the sample concentration below the lower limit of quantification were excluded from the calculation of pharmacokinetic parameters. […] The mean time to peak (Tmax) was represented as a median.

For `CC(=O)O.Nc1nc(NCCc2ccc(NC3COC3)cc2)nc2nc(-c3ccco3)nn12` [Acetate of Compound 22, 2-(furan-2-yl)-N5-(4-(oxetane-3-ylamino)phenethyl)-[1,2,4]triazolo[1,5-a][1,3,5]triazine-5,7-diamine acetate], the “exposure ratio between Day 7 and Day 1” value (63 mg/kg daily for 7 consecutive days) was “less than 2”, the F (Group 2 PO 21 mg/kg single, Female) was 70.8 ± 6.75% and the F (Group 2 PO 21 mg/kg single, Male) was 82.2 ± 20.6%. The F (Group 2 PO 21 mg/kg single, Overall) was 76.5 ± 15.1%, the F (Group 3 PO 63 mg/kg single, Female) was 74.1 ± 21.9% and the F (Group 3 PO 63 mg/kg single, Male) was 56.9 ± 1.98%. The F (Group 3 PO 63 mg/kg single, Overall) was 65.5 ± 16.8%, the F (Group 4 PO 189 mg/kg single, Female) was 44.9 ± 10.1% and the F (Group 4 PO 189 mg/kg single, Male) was 50.9 ± 5.28%. It also gave an F (Group 4 PO 189 mg/kg single, Overall) of 47.9 ± 7.91%, an F (Group 5 PO 63 mg/kg repeated, Day 1, Female) of 77.0 ± 12.5% and an F (Group 5 PO 63 mg/kg repeated, Day 1, Male) of 51.9 ± 20.5%. For the same compound, the F (Group 5 PO 63 mg/kg repeated, Day 1, Overall) was 64.5 ± 20.5%, the clearance (Sprague-Dawley (SD), intravenous injection 2.0 mg/kg, read-out: clearance rate (CL)) was 6.02 mL/min/kg and the Vd (Sprague-Dawley (SD), intravenous injection 2.0 mg/kg, read-out: steady-state apparent volume of distribution (Vss)) was 0.457 L/kg. The AUC(0-t) (Sprague-Dawley (SD), iv, 2 mg/kg, intravenous injection 2.0 mg/kg, read-out: drug exposure AUC0-t) was 5.36 µg·h/mL, the half-life (Sprague-Dawley (SD), iv, 2 mg/kg, intravenous injection 2.0 mg/kg, read-out: half-life T1/2 (converted)) was 3.39 h and the bioavailability (Sprague-Dawley (SD), oral 21 mg/kg) was 76.5%. The bioavailability (Sprague-Dawley (SD), oral 63 mg/kg) was 65.5%, the bioavailability (Sprague-Dawley (SD), oral 189 mg/kg) was 47.9% and the AUC(0-t) (Sprague-Dawley (SD), oral, 63 mg/kg, 63 mg/kg daily for 7 consecutive days, Day 1, read-out: AUC0-t) was 111 µg·h/mL. For the same compound, the AUC(0-t) (Sprague-Dawley (SD), oral, 63 mg/kg, 63 mg/kg daily for 7 consecutive days, Day 7, read-out: AUC0-t) was 127 µg·h/mL, the AUC(0-t) (Sprague-Dawley (SD), po, 21 mg/kg, oral 21 mg/kg, read-out: drug exposure (AUC0-t)) was 42.8 µg·h/mL and the Cmax (Sprague-Dawley (SD), po, 21 mg/kg, oral 21 mg/kg, read-out: maximum plasma concentration (Cmax)) was 18400 ng/mL. The AUC(0-t) (Sprague-Dawley (SD), po, 63 mg/kg, oral 63 mg/kg, read-out: drug exposure (AUC0-t)) was 112 µg·h/mL, the Cmax (Sprague-Dawley (SD), po, 63 mg/kg, oral 63 mg/kg, read-out: maximum plasma concentration (Cmax)) was 27400 ng/mL and the AUC(0-t) (Sprague-Dawley (SD), po, 189 mg/kg, oral 189 mg/kg, read-out: drug exposure (AUC0-t)) was 241 µg·h/mL. For the same compound, the Cmax (Sprague-Dawley (SD), po, 189 mg/kg, oral 189 mg/kg, read-out: maximum plasma concentration (Cmax)) was 51800 ng/mL, the C0 (Sprague-Dawley, Group 1 IV 2.0 mg/kg single, Female) was 8140 ± 820 ng/mL and the clearance (Sprague-Dawley, Group 1 IV 2.0 mg/kg single, Female, read-out: CL) was 5.66 ± 0.166 mL/min/kg. For the same compound, the Vd (Sprague-Dawley, Group 1 IV 2.0 mg/kg single, Female, read-out: Vss) was 0.465 ± 0.122 L/kg, the C0 (Sprague-Dawley, Group 1 IV 2.0 mg/kg single, Male) was 7060 ± 699 ng/mL and the clearance (Sprague-Dawley, Group 1 IV 2.0 mg/kg single, Male, read-out: CL) was 6.56 mL/min/kg. It also gave a Vd (Sprague-Dawley, Group 1 IV 2.0 mg/kg single, Male, read-out: Vss) of 0.445 L/kg, a C0 (both sexes, Sprague-Dawley, Group 1 IV 2.0 mg/kg single, Overall) of 7600 ± 905 ng/mL and a clearance (both sexes, Sprague-Dawley, Group 1 IV 2.0 mg/kg single, Overall, read-out: CL) of 6.02 ± 0.668 mL/min/kg. For the same compound, the Vd (both sexes, Sprague-Dawley, Group 1 IV 2.0 mg/kg single, Overall, read-out: Vss) was 0.457 ± 0.088 L/kg, the AUC(0-t) (both sexes, Sprague-Dawley, iv, 2 mg/kg, Group 1 IV 2.0 mg/kg single, Overall, read-out: AUC0-t) was 5.36 ± 0.664 µg·h/mL and the half-life (both sexes, Sprague-Dawley, iv, 2 mg/kg, Group 1 IV 2.0 mg/kg single, Overall, read-out: T1/2 (converted)) was 3.39 ± 2.9 h. For the same compound, the AUC(0-t) (both sexes, Sprague-Dawley, po, 21 mg/kg, Group 2 PO 21 mg/kg single, Overall, read-out: AUC0-t) was 42.8 ± 7.21 µg·h/mL, the Cmax (both sexes, Sprague-Dawley, po, 21 mg/kg, Group 2 PO 21 mg/kg single, Overall, read-out: Cmax) was 18400 ± 4040 ng/mL and the half-life (both sexes, Sprague-Dawley, po, 21 mg/kg, Group 2 PO 21 mg/kg single, Overall, read-out: T1/2 (converted)) was 3.47 ± 0.596 h. The Tmax (both sexes, Sprague-Dawley, po, 21 mg/kg, Group 2 PO 21 mg/kg single, Overall) was 0.5 h, the AUC(0-t) (both sexes, Sprague-Dawley, po, 63 mg/kg, Group 3 PO 63 mg/kg single, Overall, read-out: AUC0-t) was 112 ± 37.2 µg·h/mL and the Cmax (both sexes, Sprague-Dawley, po, 63 mg/kg, Group 3 PO 63 mg/kg single, Overall, read-out: Cmax) was 27400 ± 7200 ng/mL. It also gave a half-life (both sexes, Sprague-Dawley, po, 63 mg/kg, Group 3 PO 63 mg/kg single, Overall, read-out: T1/2 (converted)) of 3.01 ± 0.63 h, a Tmax (both sexes, Sprague-Dawley, po, 63 mg/kg, Group 3 PO 63 mg/kg single, Overall) of 1 h and an AUC(0-t) (both sexes, Sprague-Dawley, po, 63 mg/kg, Group 5 PO 63 mg/kg repeated, Day 1, Overall, read-out: AUC0-t) of 111 ± 42.1 µg·h/mL. For the same compound, the Cmax (both sexes, Sprague-Dawley, po, 63 mg/kg, Group 5 PO 63 mg/kg repeated, Day 1, Overall, read-out: Cmax) was 28800 ± 11400 ng/mL, the half-life (both sexes, Sprague-Dawley, po, 63 mg/kg, Group 5 PO 63 mg/kg repeated, Day 1, Overall, read-out: T1/2 (converted)) was 3.33 ± 1.68 h and the Tmax (both sexes, Sprague-Dawley, po, 63 mg/kg, Group 5 PO 63 mg/kg repeated, Day 1, Overall) was 2 h.
